Values after ≈ are worked out from the molar mass of the structure shown. Active and inactive are the calls of the source. The rule behind the calls is not given here.
Assays:
Histone deacetylase 1 = Histone deacetylase 1 (Homo sapiens, UniProt Q13547); test: Inhibition of full-length recombinant human HDAC1 (1 to 482 residues) expressed in baculovirus infected insect cells using Ac-Leu-Gly-Lys(Ac)-AMC as substrate incubated for 30 mins by fluorescence based assay; parameters: species or system Insect cell
Candida albicans [1] = test: microbe, parasite or virus in culture; type: functional; details: 0304103, time 48 hrs
Description: Synergistic antifungal activity against azole-resistant Candida albicans 0304103 assessed as fungal growth inhibition measured after 48 hrs in presence of FLC by CLSI based micro-dilution broth method

K562 [2] = test: Antiproliferative activity against human K562 cells assessed as cell growth inhibition incubated for 24 hrs by CCK-8 assay; type: functional, cell-based; details: K562, 24 h
HL-60 [3] = test: Antiproliferative activity against human HL-60 cells assessed as cell growth inhibition incubated for 24 hrs by CCK-8 assay; type: functional, cell-based; details: HL-60, 24 h
[4] = biological target: Bromodomain-containing protein 4 (Homo sapiens, UniProt O60885); test: Inhibition of recombinant BRD4 (unknown origin) incubated for 120 mins by TR-FRET assay relative to control; parameters: concentration or dose not given beside the values
HEL [5] = test: Antiproliferative activity against human HEL cells assessed as cell growth inhibition incubated for 24 hrs by CCK-8 assay; type: functional, cell-based
MDA-MB-231 [6] = test: Antiproliferative activity against human MDA-MB-231 cells assessed as cell growth inhibition incubated for 24 hrs by CCK-8 assay; type: functional, cell-based; details: MDA-MB-231, 24 h
Cryptococcus neoformans [7] = test: Antifungal activity against Cryptococcus neoformans H99 assessed as fungal growth inhibition measured after 48 hrs by CLSI based micro-dilution broth method; type: functional
Candida albicans [8] = type: functional, 0304103; details: time 48 hrs
Description: Synergistic antifungal activity against azole-resistant Candida albicans 0304103 assessed as fractional inhibitory concentration index measured after 48 hrs in presence of FLC by CLSI based micro-dilution broth method

Candida albicans [9] = test: microbe, parasite or virus in culture; type: functional; details: 0304103, time 48 hrs; remark: listed apart in the source
Description: Synergistic antifungal activity against azole-resistant Candida albicans 0304103 assessed as fungal growth inhibition measured after 48 hrs by CLSI based micro-dilution broth method

MDA-MB-231 [10] = test: Induction of apoptosis in human MDA-MB-231 cells assessed as late apoptotic cells at 10 uM incubated for 48 hrs by Annexin V-FITC/PI staining based flow cytometry relative to control; type: functional
Candida albicans [11] = test: Synergistic antifungal activity against Candida albicans 0304103 infected in ICR mouse assessed as decrease in kidney fungal load at 20 mg/kg, ip for 5 consecutive days; type: functional, organism-based; details: time 5.0 day
MDA-MB-231 [12] = test: Induction of apoptosis in human MDA-MB-231 cells assessed as late apoptotic cells at 5 uM incubated for 48 hrs by Annexin V-FITC/PI staining based flow cytometry relative to control; type: functional
MDA-MB-231 [13] = test: Induction of apoptosis in human MDA-MB-231 cells assessed as late apoptotic cells at 2.5 uM incubated for 48 hrs by Annexin V-FITC/PI staining based flow cytometry relative to control; type: functional
Candida albicans [14] = test: Synergistic antifungal activity against azole-resistant Candida albicans 0304103 assessed as fungal growth inhibition measured after 48 hrs in presence of SAHA by CLSI based micro-dilution broth method; type: functional
Cryptococcus neoformans [15] = test: Antifungal activity against Cryptococcus neoformans H99 assessed as fungal growth inhibition measured after 48 hrs in presence of SAHA by CLSI based micro-dilution broth method; type: functional
MDA-MB-231 [16] = test: Antitumor activity against human MDA-MB-231 cells xenografted in Balb/c nude mouse assessed as tumor growth inhibition at 10 mg/kg, ip qd for 21 consecutive days relative to control; type: functional; details: MDA-MB-231, 480 h, time 20 day, read-out: TGI
Candida albicans [17] = test: Synergistic antifungal activity against azole-resistant Candida albicans 0304103 assessed as fungal growth inhibition at 32 ug/ml measured upto 24 hrs in presence of FLC by absorbance based assay; type: functional, organism-based; details: dose 32.0 µg/ml
HEL [18] = test: Antiproliferative activity against human HEL cells assessed as cell growth inhibition incubated for 24 hrs in presence of SAHA by CCK-8 assay; type: functional, cell-based
HL-60 [19] = test: Antiproliferative activity against human HL-60 cells assessed as cell growth inhibition incubated for 24 hrs in presence of SAHA by CCK-8 assay; type: functional, cell-based; details: HL-60, 24 h
Candida albicans [20] = test: Synergistic antifungal activity against azole-resistant Candida albicans 0304103 assessed as fungal growth inhibition measured after 48 hrs in presence of FLC and SAHA by CLSI based micro-dilution broth method; type: functional
K562 [21] = test: Antiproliferative activity against human K562 cells assessed as cell growth inhibition incubated for 24 hrs in presence of SAHA by CCK-8 assay; type: functional, cell-based; details: K562, 24 h
Candida albicans [22] = test: Synergistic antifungal activity against azole-resistant Candida albicans 0304103 assessed as fractional inhibitory concentration index measured after 48 hrs in presence of FLC and SAHA by CLSI based micro-dilution broth method; type: functional
MDA-MB-231 [23] = test: Antiproliferative activity against human MDA-MB-231 cells assessed as cell growth inhibition incubated for 24 hrs in presence of SAHA by CCK-8 assay; type: functional, cell-based; details: MDA-MB-231, 24 h
Candida albicans [24] = test: Antifungal activity FLC-resistant Candida albicans 0304103 assessed as hyphal formation at 32 ug/ml incubated for 3 hrs by inverse fluorescent microscopy; type: functional, organism-based; details: dose 32.0 µg/ml
Candida albicans [25] = test: Antifungal activity against azole-resistant Candida albicans 0304103 assessed as fungal growth inhibition at 1 to 4 ug/ml measured upto 24 hrs by absorbance based assay; type: functional, organism-based; details: dose 1-4 µg/ml

Sequence of Histone deacetylase 1 (Q13547 whole entry, the tested form may be a part): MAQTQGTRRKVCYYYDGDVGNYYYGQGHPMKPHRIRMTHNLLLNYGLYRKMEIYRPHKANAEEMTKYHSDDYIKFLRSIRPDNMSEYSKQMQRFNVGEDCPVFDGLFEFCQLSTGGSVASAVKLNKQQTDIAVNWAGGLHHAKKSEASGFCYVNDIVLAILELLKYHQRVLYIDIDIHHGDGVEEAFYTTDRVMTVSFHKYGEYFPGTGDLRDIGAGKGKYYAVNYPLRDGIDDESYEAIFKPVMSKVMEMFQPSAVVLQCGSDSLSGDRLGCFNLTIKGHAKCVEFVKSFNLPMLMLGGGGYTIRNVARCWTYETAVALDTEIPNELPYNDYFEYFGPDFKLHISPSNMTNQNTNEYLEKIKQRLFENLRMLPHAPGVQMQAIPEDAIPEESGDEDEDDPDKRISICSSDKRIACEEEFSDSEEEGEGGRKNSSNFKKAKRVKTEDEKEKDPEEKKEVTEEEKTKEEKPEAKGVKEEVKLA

Structure (SMILES)	IC50 (Histone deacetylase 1) [µM]	MIC80 (Candida albicans [1]) [µg/mL]	IC50 (K562 [2]) [µM]	IC50 (HL-60 [3]) [µM]	inhibition [4] [%]	IC50 (HEL [5]) [µM]	IC50 (MDA-MB-231 [6]) [µM]	MIC80 (Cryptococcus neoformans [7]) [µg/mL]	fractional inhibitory concentration index (FICI) (Candida albicans [8])	MIC80 (Candida albicans [9]) [µg/mL]	other results
COc1cc2c(cc1-c1c(C)noc1C)[nH]c1nc(C)nc(NCc3ccc(C(=O)NO)cc3)c12	0.448	2 (≈ 4.23 µM)	1.8	2.4	97.5	2.7	8.3	64 (≈ 135 µM)	0.062	> 64	–
COc1cc2c(cc1-c1c(C)noc1C)[nH]c1nc(C)nc(NCCCCCCCC(=O)NO)c12	0.2	4 (≈ 8.32 µM)	3	> 50	86.2	3.3	7.8	64 (≈ 133 µM)	0.12	> 64	–
COc1cc2c(cc1-c1c(C)noc1C)[nH]c1nc(C)nc(NCCCCCC(=O)NO)c12	0.124	2 (≈ 4.42 µM)	17	7.9	90.8	7.1	> 50	32 (≈ 70.7 µM)	0.16	> 64	–
COc1cc2c(cc1-c1c(C)noc1C)[nH]c1ncnc(NCCCCCC(=O)Nc3ccc(/C=C/C(=O)NO)cc3)c12	0.252	1 (≈ 1.71 µM)	8.1	3.8	56.1	8.9	14	2 (≈ 3.43 µM)	0.26	> 64	–
COc1cc2c(cc1-c1c(C)noc1C)[nH]c1nc(C)nc(Nc3cccc(C(=O)NO)c3)c12	> 2	> 64	3.8	> 50	14.8	> 50	9.8	> 64	>2	> 64	–
COc1cc2c(cc1-c1c(C)noc1C)[nH]c1nc(C)nc(Nc3ccc(C(=O)NO)cc3)c12	0.395	0.5 (≈ 1.09 µM)	> 50	2.3	79.8	> 50	9.3	> 64	0.07	> 64	–
COc1cc2c(cc1-c1c(C)noc1C)[nH]c1ncnc(NCCCCC(=O)NO)c12	> 2	> 64	> 50	> 50	11.1	> 50	> 50	> 64	>2	> 64	–
COc1cc2c(cc1-c1c(C)noc1C)[nH]c1ncnc(NCCCCCCCC(=O)NO)c12	0.037	2 (≈ 4.29 µM)	8.9	> 50	85.8	15	3.8	2 (≈ 4.29 µM)	0.062	> 64	–
COc1cc2c(cc1-c1c(C)noc1C)[nH]c1ncnc(Nc3ccc(/C=C/C(=O)NO)cc3)c12	> 2	8 (≈ 17 µM)	11	> 50	67.5	> 50	6.3	16 (≈ 34 µM)	0.25	> 64	–
COc1cc2c(cc1-c1c(C)noc1C)[nH]c1nc(C)nc(Nc3ccc(/C=C/C(=O)NO)cc3)c12	1.2	0.5 (≈ 1.03 µM)	> 50	> 50	55.2	> 50	11	16 (≈ 33 µM)	0.13	> 64	–
O=C(CCCCCCC(=O)Nc1ccccc1)NO [VORINOSTAT]	–	–	–	–	–	–	–	–	–	–	Activity (MDA-MB-231 [10]): 27.19%; Activity (Candida albicans [11]): inactive; Activity (MDA-MB-231 [12]): 22.96%; Activity (MDA-MB-231 [13]): 16.91%
COc1cc2c(cc1-c1c(C)noc1C)[nH]c1ncnc(NCCCCCC(=O)NO)c12	0.203	0.5 (≈ 1.14 µM)	17	> 50	64.7	13	> 50	32 (≈ 73 µM)	0.5	> 64	–
COc1cc2c(cc1-c1c(C)noc1C)[nH]c1nc(C)nc(Nc3cc(C4CC4)nn3C)c12	–	16 (≈ 36.1 µM)	2.3	1.5	–	0.6	3.8	32 (≈ 72.2 µM)	1.2	> 64	MIC80 (Candida albicans [14]): > 64 µg/mL; MIC80 (Cryptococcus neoformans [15]): 64 µg/mL; inhibition in vivo at 10 mg/kg (MDA-MB-231 [16]): 22%; Activity (Candida albicans [17]): inactive; IC50 (HEL [18]): 0.4 µM; Activity (MDA-MB-231 [10]): 16.93%; Activity (Candida albicans [11]): inactive; IC50 (HL-60 [19]): 1.4 µM; MIC80 (Candida albicans [20]): 1 µg/mL; IC50 (K562 [21]): 0.00021 µM; Activity (MDA-MB-231 [12]): 9.99%; fractional inhibitory concentration index (FICI) (Candida albicans [22]): 0.26; IC50 (MDA-MB-231 [23]): 1.6 µM; Activity (MDA-MB-231 [13]): 8.25%
COc1cc2c(cc1-c1c(C)noc1C)[nH]c1nc(C)nc(NCCCCCC(=O)Nc3ccc(C(=O)NO)cc3)c12	0.086	1 (≈ 1.75 µM)	18	6.5	79.7	> 50	16	4 (≈ 7 µM)	0.047	> 64	–
COc1cc2c(cc1-c1c(C)noc1C)[nH]c1ncnc(Nc3ccc(C(=O)NO)cc3)c12	0.974	8 (≈ 18 µM)	> 50	6.7	53.4	> 50	19	64 (≈ 144 µM)	0.25	64 (≈ 144 µM)	–
OC(Cn1cncn1)(Cn1cncn1)c1ccc(F)cc1F	–	–	–	–	–	–	–	–	–	–	Activity (Candida albicans [24]): Active; Activity (Candida albicans [25]): inactive
COc1cc2c(cc1-c1c(C)noc1C)[nH]c1nc(C)nc(NCCCCCC(=O)Nc3ccc(/C=C/C(=O)NO)cc3)c12	1.1	1 (≈ 1.67 µM)	6	3.1	58.3	> 50	16	4 (≈ 6.69 µM)	0.078	> 64	–
